molecular target: T1, rat MCH1 receptor (Rattus norvegicus, UniProt P97639); experiment: Radioligand binding assay at cloned rat MCH1 receptor ([3H]Compound A displacement); settings: KI, cloned rat MCH1, membranes of transfected Peakr293 cells, 0.08 nM [3H]Compound A, 25° C., 90 minutes
T1 construct: expressed in transfected cells; host or cells: Human embryonic kidney Peak rapid 293 cells (Peakr293), transient, calcium phosphate; membranes
Description: For binding assays, pellets of transfected cells are suspended in ice-cold buffer (20 mM Tris.HCl, 5 mM EDTA, pH 7.4) and homogenized by sonication for 7 sec. The cell lysates are centrifuged at 200×g for 5 min at 4° C. The supernatants are then centrifuged at 40,000×g for 20 min at 4° C. The resulting pellets are washed once in the homogenization buffer and suspended in binding buffer (see methods for radioligand binding). Protein concentrations are determined by the method of Bradford (1976) using bovine serum albumin as the standard. Binding assays are usually performed immediately, however it is possible to prepare membranes in batch and store frozen in liquid nitrogen for future use.
Radioligand binding assays for the rat MCH1 receptor were carried out using plasmid pcDNA3.1-rMCH1-f (ATCC Patent Deposit Designation No. PTA-3505). Plasmid pcDNA3.1-rMCH1-f comprises the regulatory elements necessary for expression of DNA in a mammalian cell operatively linked to DNA encoding the rat MCH1 receptor so as to permit expression thereof. Plasmid pcDNA3.1-rMCH1-f was deposited on Jul. 5, 2001, with the American Type Culture Collection (ATCC), 12301 Parklawn Drive, Rockville, Md. 20852, U.S.A. under the provisions of the Budapest Treaty for the International Recognition of the Deposit of Microorganisms for the Purposes of Patent Procedure and was accorded ATCC Patent Deposit Designation No. PTA-3505.
Human embryonic kidney Peak rapid 293 cells (Peakr293 cells) were transiently transfected with DNA encoding the MCH1 receptor utilizing the calcium phosphate method and cell membranes were prepared as described above. Binding experiments with membranes from Peakr293 cells transfected with the rat MCH1 receptor were performed with 0.08 nM [^3H]Compound A (custom labeled by Amersham) (the synthesis of Compound A is described in detail below) using an incubation buffer consisting of 50 mM Tris pH 7.4, 10 mM MgCl2, 0.16 mM PMSF, 1 mM 1,10 phenantroline and 0.2% BSA. Binding was performed at 25° C. for 90 minutes. Incubations were terminated by rapid vacuum filtration over GF/C glass fiber filters, presoaked in 5% PEI using […] Tris pH 7.4 as wash buffer. In all experiments, nonspecific binding is defined using […] Compound A.
The compounds described above were assayed using cloned rat MCH1.

T1 sequence (P97639 whole entry): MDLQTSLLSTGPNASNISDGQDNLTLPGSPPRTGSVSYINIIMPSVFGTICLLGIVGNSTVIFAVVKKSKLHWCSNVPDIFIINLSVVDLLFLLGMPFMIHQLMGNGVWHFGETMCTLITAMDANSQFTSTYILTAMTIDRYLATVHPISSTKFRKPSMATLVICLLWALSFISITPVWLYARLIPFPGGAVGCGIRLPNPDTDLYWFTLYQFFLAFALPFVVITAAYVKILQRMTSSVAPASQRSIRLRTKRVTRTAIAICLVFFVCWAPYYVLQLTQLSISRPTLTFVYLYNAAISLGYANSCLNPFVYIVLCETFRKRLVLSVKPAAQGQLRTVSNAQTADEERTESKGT

| SMILES | Ki [µM] |
| --- | --- |
| O=C(NCCN1CCC2(CCc3ccccc32)CC1)c1cccc2ccccc12 [Example 42, NAPHTHYL-N-(2-(SPIRO[INDANE-1,4′-PIPERIDINE]-10-YLETHYL)CARBOXAMIDE] | 0.545 |
| S=C(NCCCCCN1CCC2(CCc3ccccc32)CC1)Nc1cccc2ccccc12 [Example 22, (NAPHTHYLAMINO)[(5-(SPIRO[INDANE-1,4′-PIPERIDINE]-10-YL)PENTYL)AMINO]METHANE-1-THIONE] | 0.517 |
| O=C(NCCCCN1CCC2(CCc3ccccc32)CC1)c1sc2ccccc2c1Cl [Example 34, (3-CHLOROBENZO[B]THIOPHEN-2-YL)-N-(4-(SPIRO[INDANE-1,4′-PIPERIDINE]-10-YL)BUTYL)CARBOXAMIDE] | 0.883 |
| O=C(NCCCN1CCC2(C=Cc3ccccc32)CC1)C(c1ccc(F)cc1)c1ccc(F)cc1 [Example 67, 2,2-BIS(4-FLUOROPHENYL)-N-(3-(SPIRO[INDENE-1,4′-PIPERIDINE]-10-YL)PROPYL)ACETAMIDE] | 0.0024 |
| O=C(NCCCCCCN1CCC2(CCc3ccccc32)CC1)c1ccc(F)c(F)c1 [Example 19, (3,4-DIFLUOROPHENYL)-N-(6-(SPIRO[INDANE-1,4′-PIPERIDINE]-10-YL)HEXYL)CARBOXAMIDE] | 0.412 |
| Cc1ccc(C(C(=O)NCCCN2CCC3(CCc4ccccc43)CC2)c2ccc(C)cc2)cc1 [Example 48, 2,2-BIS(4-METHYL)PHENYL)-N-(3-(SPIRO[INDANE-1,4′-PIPERIDINE]-10-YL)PROPYL)ACETAMIDE] | 0.0297 |
| Cc1ccc(C(C(=O)NCCCN2CCC3(CC2)C(=O)CCc2ccccc23)c2ccc(C)cc2)cc1 [Example 97, 2,2-BIS(4-METHYL)PHENYL)-N-[3-(2-OXOSPIRO[1,3,4-TRIHYDRONAPHTHALENE-1,4′-PIPERIDINE]-11-YL)PROPYL]ACETAMIDE] | 0.428 |
| O=C(NCCCN1CCC2(CCc3ccccc32)CC1)C(c1ccccc1)(c1ccccc1)c1ccccc1 [Example 49, 2,2,2-TRIPHENYL-N-(3-(SPIRO[INDANE-1,4′-PIPERIDINE]-10-YL)PROPYL)ACETAMIDE] | 0.121 |
| O=C(NCCCCCN1CCC2(CCc3ccccc32)CC1)C(c1ccccc1)c1ccccc1 [Example 3, 2,2-DIPHENYL-N-(5-(SPIRO[INDANE-1,4′-PIPERIDINE]-10-YL)PENTYL)ACETAMIDE] | 0.378 |
| CC(C(=O)NCCCN1CCC2(CC1)OCc1ccccc12)c1ccc(F)cc1 (stereo not drawn) [Example 82, 2-(4-FLUOROPHENYL)-N-(3-(SPIRO[1,3-DIHYDROISOBENZOFURAN-1,4′-PIPERIDINE]-10-YL) PROPYL) PROPANAMIDE] | 0.679 |
| O=C(NCCCN1CCC2(CC1)OCc1ccccc12)C(c1ccccc1)c1ccccc1 [Example 76, 2,2-DIPHENYL-N-(3-(SPIRO[1,3-DIHYDROISOBENZOFURAN-1,4′-PIPERIDINE]-10-YL)PROPYL)ACETAMIDE] | 0.0206 |
| O=C(NCCCN1CCC2(CCc3ccccc32)CC1)C1(c2ccc(F)cc2)CCCC1 [Example 54, [(4-FLUOROPHENYL)CYCLOPENTYL]-N-(3-(SPIRO[INDANE-1,4′-PIPERIDINE]-10-YL)PROPYL)CARBOXAMIDE] | 0.208 |
| O=C(NCCCN1CCC2(CC1)OCc1ccccc12)C1(c2ccc(Cl)cc2)CCC1 [Example 87, [(4-CHLOROPHENYL)CYCLOBUTYL]-N-(3-(SPIRO[1,3-DIHYDROISOBENZOFURAN-1,4′-PIPERIDINE]-10-YL)PROPYL)CARBOXAMIDE] | 0.417 |
| O=C(NCCCN1CCC2(CCc3ccccc32)CC1)C1(c2ccc(Cl)cc2)CCC1 [Example 59, [1-(4-CHLOROPHENYL)CYCLOBUTYL]-N-(3-(SPIRO[INDANE-1,4′-PIPERIDINE]-10-YL)PROPYL)CARBOXAMIDE] | 0.175 |
| O=C(NCCCCCN1CCC2(C=Cc3ccccc32)CC1)C(c1ccccc1)c1ccccc1 [Example 40, 2,2-DIPHENYL-N-(5-(SPIRO[INDENE-1,4′-PIPERIDINE]-10-YL)PENTYL)ACETAMIDE] | 0.384 |
| O=C(NCCCCN1CCC2(CCc3ccccc32)CC1)c1ccc(Oc2cc(Cl)cc(Cl)c2)o1 [Example 15, [5-(3,5-dichlorophenoxy)(2-furyl)]-N-(4-(SPIRO[indane-1,4′-piperidine]-10-YL)BUTYL)carboxamide] | 0.434 |
| O=C(NCCCN1CCC2(C=Cc3ccccc32)CC1)C(c1ccccc1)(c1ccccc1)c1ccccc1 [Example 64, 2,2,2-TRIPHENYL-N-(3-(SPIRO[INDENE-1,4′-PIPERIDINE]-10-YL)PROPYL)ACETAMIDE] | 0.036 |
| S=C(NCCCCCCN1CCC2(CCc3ccccc32)CC1)Nc1cccc2ccccc12 [Example 24, (NAPHTHYLAMINO)[(6-SPIRO[INDANE-1,4′-PIPERIDINE]-10-YLHEXYL)AMINO]METHANE-1-THIONE] | 0.668 |
| S=C(NCCCCN1CCC2(CCc3ccccc32)CC1)Nc1cccc2ccccc12 [Example 23, (NAPHTHYLAMINO)[(4-(SPIRO[INDANE-1,4′-PIPERIDINE]-10-YL-BUTYL)AMINO]METHANE-1-THIONE] | 0.818 |

same assay, conditions: cloned rat MCH1, membranes of transfected Peakr293 cells, 0.08 nM [3H]Compound A, 25° C., 90 minutes; read-out: KI

| SMILES | Ki [µM] |
| --- | --- |
| O=C(NCCCCN1CCC2(CCc3ccccc32)CC1)Nc1ccc(-c2ccccc2)cc1 [Example 28, N-(4-PHENYL)PHENYL)[(4-(SPIRO[INDANE-1,4′-PIPERIDINE]-10-YL)BUTYL)AMINO]CARBOXAMIDE] | 0.549 |
| Cc1ccc(C(C(=O)NCCCN2CCC3(C=Cc4ccccc43)CC2)c2ccc(C)cc2)cc1 [Example 62, 2,2-BIS(4-METHYL)PHENYL)-N-(3-(SPIRO[INDENE-1,4′-PIPERIDINE]-10-YL)PROPYL)ACETAMIDE] | 0.026 |
| O=C(NCCCN1CCC2(CC1)OCc1ccccc12)C1(c2ccc(Cl)cc2)CC1 [Example 89, [(4-CHLOROPHENYL)CYCLOPROPYL]-N-(3-(SPIRO[1,3-DIHYDROISOBENZOFURAN-1,4′-PIPERIDINE]-10-YL)PROPYL)CARBOXAMIDE] | 0.481 |
| O=C(NCCCN1CCC2(CC1)Cc1ccccc1C2=O)C(c1ccc(Cl)cc1)c1ccc(Cl)cc1 [Example 91, 2,2-BIS(4-CHLOROPHENYL)-N-[3-(1-OXOSPIRO[INDANE-2,4′-PIPERIDINE]-10-YL)PROPYL]ACETAMIDE] | 0.381 |
| O=C(NCCCCCN1CCC2(CCc3ccccc32)CC1)Nc1ccc(-c2ccccc2)cc1 [Example 27, N-(4-PHENYL)PHENYL)[(5-(SPIRO[INDANE-1,4′-PIPERIDINE]-10-YL)PENTYL)AMINO]CARBOXAMIDE] | 0.662 |
| O=C(NCCCCCN1CCC2(CCc3ccccc32)CC1)c1cccnc1Oc1ccc(Cl)cc1 [Example 31, [2-(4-CHLOROPHENOXY)(3-PYRIDYL)]-N-(5-(SPIRO[INDANE-1,4′-PIPERIDINE]-10-YL)PENTYL)CARBOXAMIDE] | 0.212 |
| O=C(NCCCN1CCC2(CCCc3ccccc32)CC1)C(c1ccccc1)c1ccccc1 [Example 96, 2,2-DIPHENYL-N-(3-(SPIRO[1,2,3,4-TETRAHYDRONAPHTHALENE-1,4′-PIPERIDINE]-11-YL) PROPYL)ACETAMIDE] | 0.128 |
| Cc1ccc2c(c1)COC21CCN(CCCNC(=O)C(c2ccccc2)c2ccccc2)CC1 [Example 103, N-[3-(5-METHYLSPIRO[1,3-DIHYDROISOBENZOFURAN-1,4′-PIPERIDINE]-10-YL)PROPYL]-2,2-DIPHENYLACETAMIDE] | 0.0147 |
| O=C(NCCCN1CCC2(C=Cc3ccccc32)CC1)C1(c2ccc(Cl)cc2)CC1 [Example 73, [(4-CHLOROPHENYL)CYCLOPROPYL]-N-(3-(SPIRO[INDENE-1,4′-PIPERIDINE]-10-YL)PROPYL)CARBOXAMIDE] | 0.239 |
| CC(C)c1ccc2c(c1)COC21CCN(CCCNC(=O)C(c2ccccc2)c2ccccc2)CC1 [Example 102, N-{3-[5-(METHYLETHYL)SPIRO[1,3-DIHYDROISOBENZOFURAN-1,4′-PIPERIDINE]-10-YL]PROPYL}-2,2-DIPHENYLACETAMIDE] | 0.162 |
| O=C(NCCN1CCC2(CCc3ccccc32)CC1)c1ccc(F)c(F)c1 [Example 45, (3,4-DIFLUOROPHENYL)-N-(2-(SPIRO[INDANE-1,4′-PIPERIDINE]-10-YLETHYL)CARBOXAMIDE] | 0.802 |
| O=C(NCCCN1CCC2(CCc3ccccc32)CC1)C1(c2ccc(Cl)cc2)CCCC1 [Example 52, [1-(4-CHLOROPHENYL)CYCLOPENTYL]-N-(3-(SPIRO[INDANE-1,4′-PIPERIDINE]-10-YL)PROPYL)CARBOXAMIDE] | 0.112 |
| O=C(NCCN1CCC2(CCc3ccccc32)CC1)c1cccc(Cl)c1 [Example 43, (3-CHLOROPHENYL)-N-(2-(SPIRO[INDANE-1,4′-PIPERIDINE]-10-YLETHYL)CARBOXAMIDE] | 0.507 |
| O=C(NCCCN1CCC2(C=Cc3ccccc32)CC1)C(c1ccccc1)c1ccccc1 [Example 38, 2,2-DIPHENYL-N-(3-SPIRO[INDENE-1,4′-PIPERIDINE]-10-YLPROPYL)ACETAMIDE] | 0.0065 |

From patent US7335665B2, “Spirocyclic piperidines as MCH1 antagonists and uses thereof” (H - Lundbeck A/S, priority 2003, dated 2008)
